The text below walks through data of ChEMBL document CHEMBL4350955, “Novel Chemical Series of 5-Lipoxygenase-Activating Protein Inhibitors for Treatment of Coronary Artery Disease” (J Med Chem, 2019).

Data set [1] deals with T1, Arachidonate 5-lipoxygenase-activating protein (Homo sapiens, UniProt P20292).
T1 sequence (P20292 whole entry): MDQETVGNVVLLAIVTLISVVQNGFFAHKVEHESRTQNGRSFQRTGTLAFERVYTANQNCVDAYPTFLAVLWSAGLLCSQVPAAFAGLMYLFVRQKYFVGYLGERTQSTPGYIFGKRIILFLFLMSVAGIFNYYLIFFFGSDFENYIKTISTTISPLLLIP
Briefly: Inhibition of [3H]MK0591 binding to human FLAP expressed in […] cell membranes measured after 60 to 80 mins by scintillation counting method.

Data set [2] has as its target T1, Arachidonate 5-lipoxygenase-activating protein. Briefly: (§1) Inhibition of FLAP in human whole blood assessed as reduction in calcium ionophore-stimulated LTB4 production preincubated for 30 mins followed by calcium ionophore stimulation and measured after 20 mins by EIA. It is filed as tissue-based.
The nature of data set [3]: Intrinsic clearance in cryopreserved human hepatocytes assessed as per million cells at 1 uM measured up to 60 mins by LC-MS/MS analysis. It is filed as ADME, cell-based, Hepatocyte. As to conditions: read-out: CLH.
The nature of data set [4]: Distribution coefficient between octanol and sodium phosphate buffer, logD of the compound in pH 7.4 buffer by LC-MS/MS-based shake flask method.
In data set [5] the target is T2, Arachidonate 5-lipoxygenase-activating protein (Homo sapiens) (UniProt P20292).
T2 sequence (whole entry): T1 sequence (P20292 whole entry)
The data set is described as §1. It is filed as tissue-based.

Data set [6] deals with Cytochrome P450 2C9 (Homo sapiens, UniProt P11712). Put plainly: Inhibition of recombinant human CYP2C9 expressed in Escherichia coli assessed as maximum reduction in metabolite formation using coumarin based substrate by fluorescence assay. In kind it is ADME.
Sequence of Cytochrome P450 2C9 (P11712 whole entry): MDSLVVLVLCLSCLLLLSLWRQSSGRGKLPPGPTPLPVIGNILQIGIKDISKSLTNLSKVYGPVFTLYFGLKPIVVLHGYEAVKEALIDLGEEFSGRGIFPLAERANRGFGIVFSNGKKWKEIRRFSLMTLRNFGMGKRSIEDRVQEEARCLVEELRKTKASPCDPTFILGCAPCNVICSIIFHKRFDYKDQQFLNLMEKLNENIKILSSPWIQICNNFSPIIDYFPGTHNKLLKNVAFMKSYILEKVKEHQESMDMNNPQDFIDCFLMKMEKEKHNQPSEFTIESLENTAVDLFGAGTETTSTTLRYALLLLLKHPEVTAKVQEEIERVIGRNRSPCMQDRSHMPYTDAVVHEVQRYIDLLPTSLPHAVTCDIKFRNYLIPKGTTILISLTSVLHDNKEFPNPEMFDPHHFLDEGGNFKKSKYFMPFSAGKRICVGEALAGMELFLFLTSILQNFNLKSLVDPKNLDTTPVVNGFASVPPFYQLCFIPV
Data set [7] can be described thus: Apparent permeability across apical to basolateral side in human Caco2 cells. The note with it: Caco-2.
Data set [8] concerns the target Voltage-gated inwardly rectifying potassium channel KCNH2 (Homo sapiens, UniProt Q12809). Put plainly: Inhibition of human ERG by high-throughput electrophysiology assay.
The nature of data set [9]: Metabolic stability in human hepatocytes assessed as parent compound remaining. In kind it is ADME, cell-based, Hepatocyte.
Data set [10] in a line: Clearance in po or iv dosed Sprague-Dawley rat. In kind it is ADME, organism-based. As to conditions: in vivo.
Data set [11] can be described thus: Volume of distribution at steady state in po or iv dosed Sprague-Dawley rat. It is filed as ADME, organism-based. As to conditions: in vivo, read-out: Vdss.
Data set [12] in a line: Half-life in po or iv dosed Sprague-Dawley rat. It is filed as ADME, organism-based. The note with it: in vivo.
A short description of data set [13]: Bioavailability in po dosed Sprague-Dawley rat. As to conditions: in vivo. In kind it is ADME, organism-based.
Data set [14] can be described thus: Protein binding in human plasma assessed as unbound fraction by LC-MS based equilibrium dialysis analysis. In kind it is ADME, cell-free. A general note: Equilibrium dialysis compares concentrations on both sides of a semipermeable membrane.
Data set [15] can be described thus: Protein binding in Sprague-Dawley rat plasma assessed as unbound fraction by LC-MS based equilibrium dialysis analysis. In kind it is ADME, cell-free.
Data set [16] in a line: physchem. As to conditions: phosphate buffer, pH 7.4.
Description: Aqueous solubility in pH 7.4 phosphate buffer after 24 hrs by UPLC/MS/MS analysis
Data set [17] has as its target T2, Arachidonate 5-lipoxygenase-activating protein (Homo sapiens). Briefly: (§2) Inhibition of FLAP in human whole blood assessed as reduction in calcium ionophore-stimulated LTB4 production preincubated for 4 hrs followed by calcium ionophore stimulation and measured after 20 mins by EIA. In kind it is tissue-based.
Data set [18] has as its target T1, Arachidonate 5-lipoxygenase-activating protein. Described as §2. In kind it is tissue-based.

Converted amounts (≈) assume the structure as drawn.

Sequence of Voltage-gated inwardly rectifying potassium channel KCNH2 (Q12809 whole entry): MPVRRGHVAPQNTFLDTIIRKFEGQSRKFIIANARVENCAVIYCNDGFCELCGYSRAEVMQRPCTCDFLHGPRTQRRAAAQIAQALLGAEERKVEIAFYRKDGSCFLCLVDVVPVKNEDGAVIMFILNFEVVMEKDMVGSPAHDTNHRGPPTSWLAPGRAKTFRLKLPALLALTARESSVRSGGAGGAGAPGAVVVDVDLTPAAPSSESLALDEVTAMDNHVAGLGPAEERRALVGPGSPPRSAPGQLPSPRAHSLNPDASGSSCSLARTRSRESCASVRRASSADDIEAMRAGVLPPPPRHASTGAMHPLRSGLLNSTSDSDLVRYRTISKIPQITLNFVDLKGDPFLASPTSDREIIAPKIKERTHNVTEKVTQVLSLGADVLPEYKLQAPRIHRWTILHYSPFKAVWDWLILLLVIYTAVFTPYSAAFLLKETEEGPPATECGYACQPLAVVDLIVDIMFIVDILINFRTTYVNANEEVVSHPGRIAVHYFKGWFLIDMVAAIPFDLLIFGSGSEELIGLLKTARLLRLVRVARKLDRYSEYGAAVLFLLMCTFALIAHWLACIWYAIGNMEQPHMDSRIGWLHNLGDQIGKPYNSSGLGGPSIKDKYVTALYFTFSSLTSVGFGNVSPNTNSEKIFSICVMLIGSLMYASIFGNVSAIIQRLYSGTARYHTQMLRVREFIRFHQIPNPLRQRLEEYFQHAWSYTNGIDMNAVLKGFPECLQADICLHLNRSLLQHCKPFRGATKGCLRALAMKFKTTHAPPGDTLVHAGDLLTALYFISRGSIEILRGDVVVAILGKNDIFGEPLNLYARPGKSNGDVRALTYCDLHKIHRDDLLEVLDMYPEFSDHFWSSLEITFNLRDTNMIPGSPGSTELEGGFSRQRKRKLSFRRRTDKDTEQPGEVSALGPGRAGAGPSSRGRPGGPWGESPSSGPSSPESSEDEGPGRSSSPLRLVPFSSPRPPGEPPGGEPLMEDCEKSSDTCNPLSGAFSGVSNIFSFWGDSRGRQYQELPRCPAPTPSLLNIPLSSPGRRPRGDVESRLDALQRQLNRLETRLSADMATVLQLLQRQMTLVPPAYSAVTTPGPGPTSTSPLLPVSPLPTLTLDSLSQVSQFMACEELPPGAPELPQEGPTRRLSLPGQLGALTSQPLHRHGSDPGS

The term IC50 denotes the concentration at which inhibition is half-maximal. Consider `Cc1noc(C)c1NC(=O)[C@@H]1CCCC[C@H]1C(=O)c1ccc(-c2cc[nH]n2)cc1` (racemic), for which the half-inhibitory concentration (IC50) in data set [1] is 200 nM; in [2], 501 nM. In addition, the hepatocyte CLint at 1 µM in [3] was determined as 6 µL/min/1e6 cells.

In general, logD refers to the decadic logarithm of the distribution of all forms, ionised or not, between an organic phase and buffer at a given pH. A lower logD goes with lower lipophilicity. In data set [4], `O=C(NCCc1ccccn1)[C@@H]1CCCC[C@H]1C(=O)c1ccc(-c2cc[nH]n2)cc1` gave a logD of 3. In addition, the half-inhibitory concentration (IC50) is 251 nM in [1] and 2510 nM in [2]. Further, in data set [5], the fpIC50 was 6.7.

As for `Cc1nn(C)cc1NC(=O)[C@H]1CCCC[C@@H]1C(=O)c1ccc(-c2cc[nH]n2)cc1`, the IC50 was 2000 nM in [1] and 7940 nM in data set [2]. The fpIC50 in [5] is 5.8.

A word on the Papp A→B: it is how fast a substance crosses the layer from the apical side. The term half-life denotes the time in which the quantity being followed falls by half. Read a low half-life as fast loss. For orientation: bioavailability means dose-corrected exposure relative to a reference, in per cent. Read a low bioavailability as little systemic uptake. As usually defined, the fraction unbound is free concentration divided by total concentration. The solubility is the concentration that dissolves in the medium under given conditions. Regarding `Cc1cc(-c2ccc(C(=O)[C@@H]3CCCC[C@H]3C(=O)Nc3cn(C)nc3C(N)=O)cc2)n[nH]1`, the logD in [4] stood at 3.1. In addition, the figures for the IC50 in data set [6] and in data set [8] were 10000 nM and greater than 31600 nM, respectively. The hepatocyte CLint at 1 µM in data set [3] stood at 12 µL/min/1e6 cells. The Papp A→B in data set [7] was found to be 22 ×10⁻⁶ cm/s. For the same molecule, the Stability in [9] stood at 79%. This molecule came in with a clearance in data set [10] of 5.5 mL/min/kg. Besides, in data set [11], the Vd came to 0.64 L/kg. The half-life in data set [12] was 1.4 h. For the same molecule, the bioavailability in data set [13] worked out at 40%. For the same molecule, the fraction unbound in [14] came to 0.076; in data set [15], 0.024. In addition, the solubility at 24 h in data set [16] was 60 µM (≈ 26.1 µg/mL).

In data set [4], `Cc1cc(-c2cc[nH]n2)ccc1C(=O)[C@@H]1CCCC[C@H]1C(=O)Nc1cn(C)nc1C` (racemic) had a logD of 3. In addition, the results for the IC50 in data set [1] and in [2] were 1000 nM and 794 nM, respectively. In addition, the fpIC50 in data set [5] was found to be 6.9.

`Cc1nn(C)cc1NC(=O)[C@@H]1CCCC[C@H]1C(=O)c1ccc(-c2ccnn2C)cc1` (racemic): the logD in [4] stood at 2.5. For the same molecule, the IC50 in data set [1] is 25100 nM; in [2] it was 31600 nM. In addition, in data set [5], the fpIC50 turned out to be 5.1.

In turn, `Cc1nn(C)cc1NC(=O)[C@@H]1CCCC[C@H]1C(=O)c1ccc(-c2cc[nH]n2)nc1` (racemic) registered a logD in data set [4] of 1.8. The IC50 in [1] is 1000 nM; in data set [2] it was 3980 nM. Moreover, in data set [5], the fpIC50 worked out at 5.8.

Molecule `CC(C)(CNC(=O)[C@@H]1CCCC[C@H]1C(=O)c1ccc(-c2cc[nH]n2)cc1)S(C)(=O)=O` registered a logD in data set [4] of 2.1. For the same molecule, the IC50 is 63.1 nM in data set [1] and 126 nM in data set [18]. Besides, the fpIC50 in data set [17] came to 7.4.

In the case of `Cn1ncc(NC(=O)[C@@H]2C[C@@H]3C[C@@H]3C[C@H]2C(=O)c2ccc(-c3cc[nH]n3)cc2)c1C(F)(F)F`, in data set [4], the logD was found to be 3.7. For the same molecule, the IC50 in data set [1] was 12.6 nM; in [2] it was 50.1 nM; in [6] it was 5010 nM. Moreover, in [5], the fpIC50 was 8.5. In addition, the hepatocyte CLint at 1 µM in [3] was 12 µL/min/1e6 cells. In data set [7], the Papp A→B was 59 ×10⁻⁶ cm/s. In addition, in [10], the clearance turned out to be 9.8 mL/min/kg. For the same molecule, the Vd in data set [11] was 1.1 L/kg. The molecule also showed a half-life in data set [12] of 1.4 h. The bioavailability in [13] was 100%. The fraction unbound in data set [14] turned out to be 0.066; in data set [15], 0.04. This molecule also gave a solubility at 24 h in data set [16] of 63 µM (≈ 28.8 µg/mL).

Turning to `Cn1cc(NC(=O)[C@@H]2CCCC[C@H]2C(=O)c2ccc(-c3cc[nH]n3)cc2)c(C(F)(F)F)n1`, the IC50 in [1] is 25.1 nM; in data set [2] it was 50.1 nM. Further, the fpIC50 in data set [5] is 8.5. In addition, the hepatocyte CLint at 1 µM in [3] came out at 12 µL/min/1e6 cells. Further, in [9], the Stability was 62%. The same molecule displayed a clearance in [10] of 6.8 mL/min/kg. Besides, the Vd in [11] came to 1 L/kg. The molecule also gave a half-life in [12] of 1.6 h. Moreover, the bioavailability in data set [13] was found to be 62%. The fraction unbound in data set [14] was found to be 0.063; in [15], 0.054.

Regarding `Cc1nn(C)cc1NC(=O)[C@@H]1CCCC[C@H]1C(=O)c1ccc(-c2cc[nH]n2)cc1` [listing 1 of 2 here], the IC50 in data set [1] is 50.1 nM; in [2] it was 200 nM.

`Cn1cc(NC(=O)[C@@H]2CCCC[C@H]2C(=O)c2ccc(-c3cc[nH]n3)cc2)c(OC(F)F)n1`: in data set [5], the fpIC50 came to 8.5.

`Cc1cc(-c2ccc3c([C@@H]4CCCC[C@H]4C(=O)Nc4cn(C)nc4C(N)=O)noc3c2)n[nH]1` yielded a logD in data set [4] of 3.4. In addition, the IC50 in [1] is 79.4 nM; in data set [18], 63.1 nM; in data set [6], 7940 nM; in [8] it was greater than 31600 nM. For the same molecule, in [17], the fpIC50 turned out to be 8.5. For the same molecule, the hepatocyte CLint at 1 µM in [3] was determined as 13 µL/min/1e6 cells. In data set [7], the Papp A→B is 7 ×10⁻⁶ cm/s. The Stability in data set [9] came to 68%. Besides, in data set [16], the solubility at 24 h worked out at 27 µM (≈ 12.1 µg/mL).

Consider `Cc1cc(-c2ccc(C(=O)[C@@H]3CCCC[C@H]3C(=O)Nc3cn(C)nc3C(N)=O)cc2)[nH]n1`, for which the fpIC50 in [5] was determined as 7.9.

For `Cc1nn(C)cc1NC(=O)[C@@H]1CCCC[C@H]1C(=O)c1ccc(-c2ccc[nH]2)cc1` (racemic), in data set [4], the log distribution coefficient (logD) was 3.1. This molecule also gave an IC50 in [1] of 1000 nM.

On to `Cc1nn(C)cc1NC(=O)[C@@H]1CCCC[C@H]1C(=O)c1ccc(-c2ccccn2)cc1` (racemic), for which the logD in [4] came out at 2.8. Moreover, the IC50 in data set [1] is 501 nM; in data set [2], 2000 nM. Besides, the fpIC50 in [5] worked out at 6.8.

For `Cc1nn(C)cc1N(C)C(=O)[C@@H]1CCCC[C@H]1C(=O)c1ccc(-c2cc[nH]n2)cc1`, in data set [4], the log distribution coefficient (logD) was 3. Besides, the 50% inhibitory concentration (IC50) in data set [1] was 200 nM; in data set [2] it was 251 nM. Moreover, the fpIC50 in data set [5] worked out at 7.5.

Turning to `Cc1cnn(-c2ccc(C(=O)[C@@H]3CCCC[C@H]3C(=O)Nc3cccc(C(N)=O)c3)cc2)c1` (racemic), the logD in data set [4] was determined as 3.6. The IC50 is 316 nM in data set [1] and 2000 nM in [2]. Besides, the fpIC50 in data set [5] was found to be 7.4.

On to `Cc1c[nH]nc1-c1ccc(C(=O)[C@@H]2CCCC[C@H]2C(=O)Nc2cn(C)nc2C)cc1` (racemic), for which, in [4], the logD is 3.1. In addition, the 50% inhibitory concentration (IC50) in [1] was 1000 nM.

Regarding `Cc1nn(C)cc1NC(=O)[C@@H]1CCCC[C@H]1C(=O)c1ccc(-c2cc[nH]n2)cc1` [listing 2 of 2 here], the fpIC50 in [5] was 7.4.

As to `CC(=O)c1cccc(-c2ccc(C(=O)[C@@H]3CCCC[C@H]3C(=O)Nc3c(C)noc3C)cc2)c1` (racemic), the logD in data set [4] came out at 3.9. In [1], this molecule had an IC50 of 2510 nM.

For the molecule `Cc1nn(C)cc1NC(=O)[C@@H]1CCCC[C@H]1C(=O)c1ccc(-c2cc[nH]n2)cc1` (racemic), in [5], the fpIC50 turned out to be 7.1.

Turning to `COc1cc(NC(=O)[C@@H]2CCCC[C@H]2C(=O)c2ccc(-c3cc[nH]n3)cc2)ncn1`, in data set [4], the logD is 3.9. Further, the IC50 in data set [1] was 15.8 nM; in data set [2], 15.8 nM; in data set [6], 5010 nM; in data set [8] it was 12600 nM. Besides, in [5], the fpIC50 came to 9.3. In addition, the hepatocyte CLint at 1 µM in data set [3] was found to be 22 µL/min/1e6 cells. Also, the Papp A→B in data set [7] turned out to be 69 ×10⁻⁶ cm/s. The molecule further gave a solubility at 24 h in data set [16] of 22 µM (≈ 8.92 µg/mL).

On to `Cc1nn(C)cc1NC(=O)[C@@H]1[C@H]2CC[C@H](CC2)[C@H]1C(=O)c1ccc(-c2cc[nH]n2)cc1F` (racemic), for which, in [4], the logD was determined as 4. The IC50 in [1] was 63.1 nM; in [2] it was 200 nM. In [5], the fpIC50 was 7.1.
